Measurements from paper PMC6149849, “Cymantrenyl-Nucleobases: Synthesis, Anticancer, Antitrypanosomal and Antimicrobial Activity Studies” (Molecules : A Journal of Synthetic Chemistry and Natural …, 2017).

What was measured:
[1] = system: SKOV-3 (ovarian adenocarcinoma); assay: MTT cytotoxicity assay, SKOV-3; format: cell-based, human; conditions: 24 h incubation, MTT; means ± SEM; read-out: cytotoxicity IC50, SKOV-3
Description: (§3) Anticancer activity of cymantrenes was determined using a panel of human cancer cell lines that were derived from solid tumors. […] The inhibitory effect of cymantrene derivatives on cell proliferation and growth was determined based on survival curves and was expressed as IC50 values (concentration required to achieve a 50% decrease in cell viability when compared to the viability of untreated control cells) calculated using GraphPad Prism 4.02 software for Windows (GraphPad Software, San Diego, CA, USA). Cell viability was determined by the MTT microplate spectrophotometric cytotoxicity test.
(§4) Cells were grown as a monolayer in DMEM growth medium, supplemented with 10% FBS, penicillin (10 U/mL) and streptomycin (50 μg/mL), under standard conditions (37 °C, 5% CO2 and 95% air, 100% humidity) and periodically checked for Mycoplasma contamination.
(§5) The cytotoxicity of cymantrene derivatives was evaluated by the MTT microplate methods as described elsewhere [67] by incubating the cells with increasing concentrations of tested compounds for 24 h. Briefly, 0.1 mL of logarithmically growing cells were seeded in a 96-well microplate (5 × 10^4 cells/well) a day before the experiments and after 24 h of culture, tested compounds, dissolved in DMSO, and diluted in culture medium, were added. […] After further incubation for 24 h, the medium was replaced with fresh medium and the cells were allowed to grow for additional 48 h. Then, the medium was aspirated and 0.05 mL of MTT (final concentration of 5 mg/mL medium) added to each well, and the cells were incubated for further 4 h. The absorbance of the product, resulting from the MTT reduction, was read with a microplate reader at 545 nm. The percentage of viable cells was calculated by comparing the absorbance of treated cells with that of the untreated control cells (taken as 100%). The IC50 concentration of each compound was calculated from the cell survival curves using GraphPad Prism 4.02 software for Windows (GraphPad Software, San Diego, CA, USA).

SKOV-3 cells [2] = assay: Autophagy (acidic vesicular organelles, AVOs), acridine orange staining; format: cell-based, human; conditions: SKOV-3, IC50 concentrations 24 h, then 0, 24 or 48 h drug-free
Description: (§1) To determine the mode of cell death that was triggered by cymantrene derivatives, appropriately stained SKOV-3 cells were evaluated for morphological changes using fluorescence microscopy. For evaluation of apoptosis and autophagy, cells were stained with Hoechst 33258/propidium iodide to distinguish between live, apoptotic and necrotic cells and reveal condensed chromatin and apoptotic bodies (a hallmark of apoptosis), and with acridine orange to detect the development of acidic vesicular organelles (AVOs—a hallmark of autophagy).
(§2) One day prior to the experiments, cells were seeded at the appropriate density into 35 mm diameter dishes. […] At the end of incubation, the medium was aspirated, the cell monolayer was washed twice with pre-warmed PBS, and fresh medium was added. The cells were cultured in drug-free medium for an additional 24 or 48 h to enable them to recover after the exposure to the compounds and to repair any induced damages.
The ability of tested compounds to induce autophagosome formation inside cells (the process associated with the induction of autophagy) was evaluated by microscopic examination of the morphology of cells stained with acridine orange (AO).

[3] = system: S. aureus ATCC 700787 (VISA); assay: Antibacterial liquid microdilution (CLSI M07-A8); format: cell-based, Staphylococcus aureus; conditions: 18 to 24 h
[4] = system: S. aureus ATCC 43300 (MRSA); assay: Antibacterial liquid microdilution (CLSI M07-A8); format: cell-based, Staphylococcus aureus; conditions: 18 to 24 h
[5] = system: S. aureus ATCC 29213 (MSSA); assay: Antibacterial liquid microdilution (CLSI M07-A8); format: cell-based, Staphylococcus aureus; conditions: 18 to 24 h
SKOV-3 cells [6] = assay: Apoptotic/necrotic cell death, Hoechst 33258/propidium iodide staining, fluorescence microscopy; format: cell-based, human
Description: as §1, §2
Quantitative analysis of morphological changes that are associated with apoptosis, necrosis, and autophagy were assessed using a fluorescence microscope (Olympus IX70, Tokyo, Japan) at 400× magnification, as described elsewhere. At the indicated time points, cells were washed with PBS, trypsinized, and centrifuged at 1000 rpm (fixed angle rotor, 72× g) for 5 min at 37 °C. The supernatant was removed and the cell pellet (100 µL) was transferred to the Eppendorf tube, mixed with Ho33258 (2 µL, 0.13 mM) and PI (2 µL, 0.23 mM), and incubated for 5 min in the dark at room temperature. At least 300 stained cells were counted in triplicate in each of the three independent experiments. Cells were classified as live, apoptotic, or necrotic on the basis of their morphological and staining characteristics, and each fraction was related to the total cell number.

[7] = system: human myeloid leukemia HL-60 cells; assay: General cytotoxicity, resazurin viability assay
[8] = system: HepG2 (hepatocellular carcinoma); assay: MTT cytotoxicity assay, HepG2; format: cell-based, human; conditions: 24 h incubation, MTT; means ± SEM; read-out: cytotoxicity IC50, HepG2
Description: as §3, §4, §5

[9] = system: MCF-7 (hormone-responsive breast adenocarcinoma); assay: MTT cytotoxicity assay, MCF-7; format: cell-based, human; conditions: 24 h incubation, MTT; means ± SEM; read-out: cytotoxicity IC50, MCF-7
Description: as §3, §4, §5

[10] = system: bloodstream forms of T. brucei clone 427-221a; assay: Trypanocidal assay, resazurin viability assay; format: cell-based, Trypanosoma brucei
In short: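 Trypanosomes seeded at 10^4/mL and HL-60 at 5 × 10^4/mL with compound (final DMSO 0.9%), 37 °C, 5% CO2. After 24 h, resazurin added and cells incubated a further 48 h; absorbance 570 nm (reference 630 nm). GI50 by linear interpolation; MIC judged microscopically.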

[11] = system: E. coli ATCC BAA-198 (ESBL); assay: Antibacterial liquid microdilution (CLSI M07-A8); format: cell-based, Escherichia coli; conditions: 18 to 24 h
U87-MG (glioblastoma) = assay: MTT cytotoxicity assay, U87-MG; format: cell-based, human; conditions: 24 h incubation, MTT; means ± SEM; read-out: cytotoxicity IC50, U87-MG
Description: as §3, §4, §5

[12] = ratio of cytotoxic (HL-60) to trypanocidal (T. brucei) activity

`O=c1[nH]c(=O)n(CCC(O)[C]23[CH]4[CH]5[CH]6[CH]2[Mn]5643[P](c2ccccc2)(c2ccccc2)c2ccccc2)cc1F.[C-]#[O+].[C-]#[O+]` (racemic) [Compound 3] was tested, and the IC50 [1] was 53 ± 2.65 µM, the “induction of autophagy (cells containing AVOs)” value (SKOV-3 cells [2]) was “very little autophagic activity” and the “MIC, S. aureus ATCC 700787 (VISA)” value [3] was >256 µg/mL. For the same compound, the “MIC, S. aureus ATCC 43300 (MRSA)” value [4] was >256 µg/mL, the “MIC, S. aureus ATCC 29213 (MSSA)” value [5] was >256 µg/mL and the “increase of apoptotic cells compared to untreated control cells” value (SKOV-3 cells [6]; SKOV-3, 24 h treatment with IC50 concentrations, post-treatment 24 and 48 h) was “only a three-fold increase”. The mitotic cell death (SKOV-3 cells [6]; SKOV-3, morphology) was “induced extensive mitotic cell death”, the “HL-60 MIC” value ([7]; concentration at which all cells were killed) was 100 µM and the GI50 ([7]; read-out: HL-60 GI50, 50% growth inhibition) was 30.6 ± 2.6 µM. The IC50 [8] was 65.8 ± 3.29 µM, the IC50 [9] was 57.8 ± 2.89 µM and the GI50 ([10]; 50% growth inhibition) was 4.27 ± 0.13 µM. The “MIC and GI50 ratios of cytotoxic to trypanocidal activities” value ([10]; HL-60 / T. brucei) was 7–13, the MIC ([10]; concentration at which all cells were killed, determined microscopically) was 10 µM and the “Selectivity GI50 Ratio” value [10, 12] was 7.2. The “Selectivity MIC Ratio” value [10, 12] was 10, the “MIC, E. coli ATCC BAA-198” value [11] was >256 µg/mL and the IC50 (U87-MG (glioblastoma)) was 24.9 ± 1.24 µM.
